Assay results published in patent US20170066797A1, “WITHAFERIN A ANALOGS AND USES THEREOF” (Whitehead Institute for Biomedical Research, priority 2008, published 2017).

Key:
[1] = test system: MCF-7 breast cancer cells; experiment: MTT proliferation/survival (cytotoxicity) assay, MCF-7; format: cell-based
From the text: FIG. 1. Concentration- and time-dependent cell proliferation/survival inhibition by 2,3-dihydrowithaferin A-3β-O-sulfate (WA-SO4) and withaferin A (WA). MCF-7 breast cancer cells were exposed to the indicated concentrations of compounds and relative viable cell number determined by dye reduction assay after the time intervals noted. Data are representative of three independent experiments.
(§1) A standard tetrazolium dye [3-(4,5-di-methylthiazol-2-yl)-2,5-diphenyltetrazoliumbromide; MTT]-based colorimetric assay was used to measure the proliferation/survival of cells in triplicate wells using a 96-well plate-based format. […] Cells were exposed continuously to test compounds for 24 or 72 h at which times related viable cell number per well was determined as previously described (Wijeratne, et al., J Nat. Prod. (2003) 66: 1567-1573, incorporated herein by reference).

[2] = test system: PC-3M (metastatic prostate cancer); experiment: Proliferation/survival assay, PC-3M; format: cell-based; conditions: same time dependence as in MCF-7
Protocol: as §1

[3] = test system: NCI-H460 (non small cell lung); experiment: Proliferation/survival assay, NCI-H460; format: cell-based; conditions: same time dependence as in MCF-7
Protocol: as §1

[4] = test system: WI-38 fibroblasts; experiment: Detection of F-actin aggregation (phalloidin staining); format: cell-based, Human; conditions: 4 μM, 4 or 24 h, FIG. 3
Protocol: FIGS. 3A-3D. Induction of F-actin aggregation. Following incubation with test compounds for the indicated intervals, WI-38 fibroblasts were fixed and stained with fluorescently-labeled phalloidin (green signal) to visualize the actin cytoskeleton. Cells were counterstained with DAPI (blue signal) to identify their nuclei. All images were acquired using the same magnification and exposure conditions. Data are representative of two independent experiments. (A) DMSO, 24 h incubation. (B) Withaferin A, 4 h. (C) 2,3-Dihydrowithaferin A-3β-O-sulfate, 4 h. (D) 2,3-Dihydrowithaferin A-3β-O-sulfate, 24 h.
Cells were seeded in 8-well chamber slides at a density of 2×10^4 cells per well and allowed to adhere for 48 h. Compounds 1 and 2 were freshly prepared as 5 mM stock solutions in DMSO and applied to cells at a final concentration of 4 μM in RPMI culture medium supplemented with 10% fetal bovine serum, Glutamax™, and penicillin/streptomycin. Control wells were treated with an equal volume of DMSO, not exceeding 0.2% in culture media. Cells were incubated for 4 or 24 h in the continuous presence of the indicated compounds, then washed twice with PBS, fixed with 4% paraformaldehyde/PBS (pH 7.6), and permabilized with 0.1% triton-X 100/PBS. […]

[5] = Conversion of 2,3-dihydrowithaferin A-3β-O-sulfate to withaferin A in cell culture media (HPLC); format: physicochemical; conditions: DMEM + 10% fetal bovine serum, 37° C., 4, 16, 24 h, FIG. 2
Protocol: FIGS. 2A and 2B. Conversion of 2,3-dihydrowithaferin A-3β-O-sulfate (solid circles) to withaferin A (solid squares) in cell culture medium. (A) Incubation of 2,3-dihydrowithaferin A-3β-O-sulfate in DMEM supplemented with 10% fetal bovine serum. (B) Incubation in cysteine/methionine-free DMEM supplemented with 10% fetal bovine serum. The concentration of 2,3-dihydrowithaferin A-3β-O-sulfate (solid circles) and its conversion to withaferin A (solid squares) was measured over time by HPLC using an external standard curve method.
Stock solutions of 2,3-dihydrowithaferin A-3β-O-sulfate in DMSO (50 μL) were diluted into cell culture medium (950 μL) to achieve the indicated starting concentration, mixed thoroughly and the solution incubated in a CO2 incubator at 37° C. Aliquots (100 μL) were withdrawn at 4, 16, and 24 h and subjected to HPLC analysis for 2,3-dihydrowithaferin A-3β-O-sulfate (RRT=18.5 min) and withaferin A (RRT=23.5 min) on a Kromasil C18 RP column (250×4.6 mm, […]) with gradient elution using 40-100% aqueous MeOH and using an ELSD detector. An external standard curve method was used to calculate the concentration of each compound in the sampled aliquots (Khajuria, et al., J Sep. Sci. (2004) 27: 541-546, incorporated herein by reference).

[6] = test system: minimal heat shock response element derived from the promoter region of the Hsp70B gene; experiment: Heat shock reporter (EGFP) induction; format: cell-based; conditions: overnight exposure, FIG. 8
Protocol: FIG. 8. Heat shock reporter induction measured by micro plate fluorimeter. Reporter cells stably transduced with a plasmid encoding enhanced green fluorescent protein (EGFP) under the control of a minimal heat shock response element were exposed to 2,3-dihydrowithaferin A-3β-O-sulfate (WA-SO4) or withaferin A (WA) at the indicated concentrations overnight. Relative fluorescence units (RFU) per well were determined as a measure of reporter activation. Each point represents the mean of nine determinations from three independent experiments.
Immortalized mouse embryo fibroblasts derived from homozygous Hsf1 knockout mice or their wild type littermates were exposed overnight to equitoxic concentrations of 1 or the known heat shock-inducing Hsp90 inhibitor gendanamycin. Whole cell lysates were prepared in non-ionic detergent buffer and immunoblotted for relative levels of Hsp72, a highly inducible member of the Hsp70 family of molecular chaperones, using monoclonal antibody C92F3A-5 (StressMarq Biosciences, Victoria, BC). Reactivity was detected using peroxidase-conjugated secondary antibody and chemiluminescent detection. To evaluate the relative ability of compounds to induce a heat shock response at the transcriptional level, a reporter cell line was used as previously described (Turbyville, et al., J. Nat. Prod. (2006) 69: 178-184, incorporated herein by reference). […]

[7] = test system: Ewing's sarcoma cells (CHP-100); conditions: 72 hours, MTT, FIG. 5
From the text: Relative viable cell number was quantified by MTT assay. Results are presented as a percentage compared to wells exposed to DMSO alone. […] Points: mean of triplicate determinations; Error bars: s.d.

[8] = test system: Human umbilical vein endothelial cells (HUVEC); experiment: Endothelial cell network (tube) formation on Matrigel; format: cell-based; conditions: 16 h, FIG. 6
Protocol: FIG. 6. […] Human umbilical vein endothelial cells (HUVEC) were seeded into Matrigel-coated wells and allowed to adhere for 1 h. Adherent cells were exposed to the indicated concentrations of withaferin A, epi-withaferin A (α-WA) or an equal volume of solvent vehicle (DMSO) for 16 h. Cells were washed 1× in PBS and fixed to visualize tube formation by light microscopy.

Row | Structure (SMILES) | potency compared with withaferin A, MCF-7 ([1]; after ca. 72 hours) | inhibition of the proliferation/survival of MCF-7 breast cancer cells ([1]; dye reduction (MTT) assay, 24 or 72 h, FIG. 1) | proliferation/survival inhibition compared with withaferin A, PC-3M [2] | proliferation/survival inhibition compared with withaferin A, NCI-H460 [3] | induction of F-actin aggregation [4] | conversion to withaferin A in cell culture media [5] | heat shock reporter induction [6] | inhibition of tumor cell growth in vitro, CHP-100 [7] | inhibition of endothelial cell network formation [8]
1 | CC1=C(CO)C(=O)OC(C(C)C2CC[C@H]3[C@@H]4C[C@H]5O[C@]56[C@@H](O)[C@@H](OS(=O)(=O)O)CC(=O)[C@]6(C)[C@H]4CC[C@]23C)C1 (stereo partly drawn) [2,3-dihydrowithaferin A-3β-O-sulfate] | equipotent with withaferin A | concentration- and time-dependent inhibition | same results | same results | induced F-actin aggregation, but dihydrowithaferin A-3β-O-sulfate required a longer period of time | conversion of dihydrowithaferin A-3β-O-sulfate to withaferin A in cell culture media | induces a robust heat shock response after overnight treatment of cells, albeit at higher concentrations than that of withaferin A | – | –
2 | CC1=C(CO)C(=O)OC([C@@H](C)C2CCC3C4C[C@H]5O[C@]56[C@H](O)C=CC(=O)[C@]6(C)C4CC[C@@]32C)C1 (stereo partly drawn) [epi-withaferin A] | – | – | – | – | – | – | – | Concentration-dependent inhibition of tumor cell growth in vitro | Inhibition of endothelial cell network formation
